Measured values from PubChem BioAssay (NCI).
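Grown in 96-well plates, cells were treated for 48 hours with each compound at five concentrations. Insufficient inhibition: endpoint recorded as highest concentration tested. GI50 is the concentration that inhibits growth by half. TGI marks complete inhibition of growth.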

Assays:
Assay in all cases: NCI-60 cell line screen, 48 h
OVCAR-8 ovarian = test system: OVCAR-8 ovarian
OVCAR-3 ovarian = test system: OVCAR-3 ovarian
MALME-3M melanoma = test system: MALME-3M melanoma
SF-295 CNS = test system: SF-295 CNS
UO-31 renal = test system: UO-31 renal
HCT-15 colon = test system: HCT-15 colon
SNB-19 CNS = test system: SNB-19 CNS
UACC-62 melanoma = test system: UACC-62 melanoma
EKVX NSCLC = test system: EKVX NSCLC
MOLT-4 leukemia = test system: MOLT-4 leukemia
UACC-257 melanoma = test system: UACC-257 melanoma
K-562 leukemia = test system: K-562 leukemia
HCC-2998 colon = test system: HCC-2998 colon
A549 NSCLC = test system: A549 NSCLC
NCI-H23 lung = test system: NCI-H23 lung
SK-MEL-5 melanoma = test system: SK-MEL-5 melanoma
HOP-62 NSCLC = test system: HOP-62 NSCLC
SK-OV-3 ovarian = test system: SK-OV-3 ovarian
RXF 393 renal = test system: RXF 393 renal
A498 renal = test system: A498 renal
RPMI-8226 leukemia = test system: RPMI-8226 leukemia
M14 melanoma = test system: M14 melanoma
SK-MEL-2 melanoma = test system: SK-MEL-2 melanoma
BT-549 breast = test system: BT-549 breast
HOP-92 NSCLC = test system: HOP-92 NSCLC
LOX IMVI melanoma = test system: LOX IMVI melanoma
NCI-H460 lung = test system: NCI-H460 lung
NCI-H226 lung = test system: NCI-H226 lung
CAKI-1 renal = test system: CAKI-1 renal
COLO 205 colon = test system: COLO 205 colon
HL-60(TB) leukemia = test system: HL-60(TB) leukemia
ACHN renal = test system: ACHN renal
TK-10 renal = test system: TK-10 renal
T-47D breast = test system: T-47D breast
786-0 renal = test system: 786-0 renal
DU-145 prostate = test system: DU-145 prostate
SNB-75 CNS = test system: SNB-75 CNS
CCRF-CEM leukemia = test system: CCRF-CEM leukemia
U251 CNS = test system: U251 CNS
KM12 colon = test system: KM12 colon
NCI-H522 lung = test system: NCI-H522 lung
NCI/ADR-RES ovarian = test system: NCI/ADR-RES ovarian
HT29 colon = test system: HT29 colon
OVCAR-4 ovarian = test system: OVCAR-4 ovarian
SW-620 colon = test system: SW-620 colon
OVCAR-5 ovarian = test system: OVCAR-5 ovarian
IGROV1 ovarian = test system: IGROV1 ovarian
SK-MEL-28 melanoma = test system: SK-MEL-28 melanoma
MDA-MB-231 breast = test system: MDA-MB-231 breast
HS 578T breast = test system: HS 578T breast
PC-3 prostate = test system: PC-3 prostate
MDA-MB-435 = test system: MDA-MB-435
HCT-116 colon = test system: HCT-116 colon
SR leukemia = test system: SR leukemia
SF-268 CNS = test system: SF-268 CNS
SN12C renal = test system: SN12C renal
SF-539 CNS = test system: SF-539 CNS

Compound N#Cc1ccc(Oc2nc3ccccc3nc2C(=O)O)cc1 has a TGI (OVCAR-8 ovarian) greater than 100 µM, a TGI (OVCAR-3 ovarian) greater than 100 µM and a TGI (MALME-3M melanoma) greater than 100 µM. The TGI (SF-295 CNS) was greater than 100 µM, the TGI (UO-31 renal) was greater than 100 µM and the TGI (HCT-15 colon) was greater than 100 µM. For the same compound, the TGI (SNB-19 CNS) was greater than 100 µM, the TGI (UACC-62 melanoma) was greater than 100 µM and the TGI (EKVX NSCLC) was greater than 100 µM. The TGI (MOLT-4 leukemia) was greater than 100 µM, the TGI (UACC-257 melanoma) was greater than 100 µM and the TGI (K-562 leukemia) was greater than 100 µM. The TGI (HCC-2998 colon) was greater than 100 µM, the TGI (A549 NSCLC) was greater than 100 µM and the TGI (NCI-H23 lung) was greater than 100 µM. For the same compound, the TGI (SK-MEL-5 melanoma) was greater than 100 µM, the TGI (HOP-62 NSCLC) was greater than 100 µM and the TGI (SK-OV-3 ovarian) was greater than 100 µM. It also gave a TGI (RXF 393 renal) greater than 100 µM, a TGI (A498 renal) greater than 100 µM and a TGI (RPMI-8226 leukemia) greater than 100 µM. It also gave a TGI (M14 melanoma) greater than 100 µM, a TGI (SK-MEL-2 melanoma) greater than 100 µM and a TGI (BT-549 breast) greater than 100 µM. For the same compound, the TGI (HOP-92 NSCLC) was greater than 100 µM, the TGI (LOX IMVI melanoma) was greater than 100 µM and the TGI (NCI-H460 lung) was greater than 100 µM. For the same compound, the TGI (NCI-H226 lung) was greater than 100 µM, the TGI (CAKI-1 renal) was greater than 100 µM and the TGI (COLO 205 colon) was greater than 100 µM. For the same compound, the TGI (HL-60(TB) leukemia) was greater than 100 µM, the TGI (ACHN renal) was greater than 100 µM and the TGI (TK-10 renal) was greater than 100 µM. It also gave a TGI (T-47D breast) greater than 100 µM, a TGI (786-0 renal) greater than 100 µM and a TGI (DU-145 prostate) greater than 100 µM. The TGI (SNB-75 CNS) was greater than 100 µM, the TGI (CCRF-CEM leukemia) was greater than 100 µM and the TGI (U251 CNS) was greater than 100 µM. The TGI (KM12 colon) was greater than 100 µM, the TGI (NCI-H522 lung) was greater than 100 µM and the TGI (NCI/ADR-RES ovarian) was greater than 100 µM. It also gave a TGI (HT29 colon) greater than 100 µM, a TGI (OVCAR-4 ovarian) greater than 100 µM and a TGI (SW-620 colon) greater than 100 µM. It also gave a TGI (OVCAR-5 ovarian) greater than 100 µM, a TGI (IGROV1 ovarian) greater than 100 µM and a TGI (SK-MEL-28 melanoma) greater than 100 µM. The TGI (MDA-MB-231 breast) was greater than 100 µM, the TGI (HS 578T breast) was greater than 100 µM and the TGI (PC-3 prostate) was greater than 100 µM. The TGI (MDA-MB-435) was greater than 100 µM, the TGI (HCT-116 colon) was greater than 100 µM and the TGI (SR leukemia) was greater than 100 µM. For the same compound, the TGI (SF-268 CNS) was greater than 100 µM.

O=C(Nc1ccc(Cl)cc1)Nc1ccc(Oc2nncc3ccccc23)cc1 gave a GI50 (OVCAR-8 ovarian) of 1.1 µM, a TGI (OVCAR-8 ovarian) of 13.6 µM and a GI50 (OVCAR-3 ovarian) of 0.354 µM. The TGI (OVCAR-3 ovarian) was 1.15 µM, the GI50 (MALME-3M melanoma) was 0.448 µM and the TGI (MALME-3M melanoma) was 2.31 µM. For the same compound, the GI50 (SF-295 CNS) was 2.54 µM, the TGI (SF-295 CNS) was 6.27 µM and the GI50 (HCT-15 colon) was 0.961 µM. The TGI (HCT-15 colon) was 3.08 µM, the GI50 (SNB-19 CNS) was 1.74 µM and the TGI (SNB-19 CNS) was 4.79 µM. For the same compound, the GI50 (SN12C renal) was 1.03 µM, the TGI (SN12C renal) was 3.58 µM and the GI50 (UACC-62 melanoma) was 1.08 µM. For the same compound, the TGI (UACC-62 melanoma) was 3.46 µM, the GI50 (EKVX NSCLC) was 1.61 µM and the TGI (EKVX NSCLC) was 4.5 µM. The GI50 (MOLT-4 leukemia) was 0.376 µM, the TGI (MOLT-4 leukemia) was greater than 100 µM and the GI50 (UACC-257 melanoma) was 1.5 µM. The TGI (UACC-257 melanoma) was 4.04 µM, the GI50 (K-562 leukemia) was 0.376 µM and the TGI (K-562 leukemia) was 10.9 µM. It also gave a GI50 (HCC-2998 colon) of 1.84 µM, a TGI (HCC-2998 colon) of 3.48 µM and a GI50 (A549 NSCLC) of 2.81 µM. For the same compound, the TGI (A549 NSCLC) was 11.5 µM, the GI50 (NCI-H23 lung) was 0.751 µM and the TGI (NCI-H23 lung) was 2.87 µM. For the same compound, the GI50 (SK-MEL-5 melanoma) was 1.2 µM, the TGI (SK-MEL-5 melanoma) was 2.81 µM and the GI50 (HOP-62 NSCLC) was 1.09 µM. It also gave a TGI (HOP-62 NSCLC) of 4.32 µM, a GI50 (SK-OV-3 ovarian) of 1.74 µM and a TGI (SK-OV-3 ovarian) of 5.48 µM. It also gave a GI50 (RXF 393 renal) of 0.312 µM, a TGI (RXF 393 renal) of 1.05 µM and a GI50 (A498 renal) of 1.5 µM. It also gave a TGI (A498 renal) of 3.06 µM, a GI50 (RPMI-8226 leukemia) of 0.488 µM and a TGI (RPMI-8226 leukemia) of 4.58 µM. For the same compound, the GI50 (M14 melanoma) was 1.12 µM, the TGI (M14 melanoma) was 3.16 µM and the GI50 (SK-MEL-2 melanoma) was 1.57 µM. The TGI (SK-MEL-2 melanoma) was 3.65 µM, the GI50 (BT-549 breast) was 2.08 µM and the TGI (BT-549 breast) was 7.43 µM. The GI50 (HOP-92 NSCLC) was 1.64 µM, the TGI (HOP-92 NSCLC) was 4.38 µM and the GI50 (LOX IMVI melanoma) was 0.166 µM. The TGI (LOX IMVI melanoma) was 0.455 µM, the GI50 (NCI-H460 lung) was 2.79 µM and the TGI (NCI-H460 lung) was 8.32 µM. The GI50 (NCI-H226 lung) was 0.623 µM, the TGI (NCI-H226 lung) was 5.42 µM and the GI50 (CAKI-1 renal) was 2.72 µM. It also gave a TGI (CAKI-1 renal) of 8.7 µM, a GI50 (COLO 205 colon) of 1.18 µM and a TGI (COLO 205 colon) of 2.92 µM. For the same compound, the GI50 (HL-60(TB) leukemia) was 1.08 µM, the TGI (HL-60(TB) leukemia) was 13.4 µM and the GI50 (ACHN renal) was 1.05 µM. The TGI (ACHN renal) was 2.33 µM, the GI50 (TK-10 renal) was 2.12 µM and the TGI (TK-10 renal) was 4.28 µM. For the same compound, the GI50 (T-47D breast) was 0.245 µM, the TGI (T-47D breast) was 0.768 µM and the GI50 (DU-145 prostate) was 0.736 µM. The TGI (DU-145 prostate) was 2.08 µM, the GI50 (SNB-75 CNS) was 0.451 µM and the TGI (SNB-75 CNS) was 1.95 µM. The GI50 (U251 CNS) was 1.01 µM, the TGI (U251 CNS) was 2.38 µM and the GI50 (KM12 colon) was 0.888 µM. The TGI (KM12 colon) was 2.65 µM, the GI50 (NCI-H522 lung) was 0.193 µM and the TGI (NCI-H522 lung) was 0.419 µM. It also gave a GI50 (NCI/ADR-RES ovarian) of 2.63 µM, a TGI (NCI/ADR-RES ovarian) greater than 100 µM and a GI50 (HT29 colon) of 0.465 µM. For the same compound, the TGI (HT29 colon) was 2.39 µM, the GI50 (OVCAR-4 ovarian) was 0.753 µM and the TGI (OVCAR-4 ovarian) was 3.49 µM. It also gave a GI50 (SW-620 colon) of 0.348 µM, a TGI (SW-620 colon) of 1.6 µM and a GI50 (OVCAR-5 ovarian) of 1.89 µM. It also gave a TGI (OVCAR-5 ovarian) of 4.47 µM, a GI50 (IGROV1 ovarian) of 1.16 µM and a TGI (IGROV1 ovarian) of 5 µM. The GI50 (SK-MEL-28 melanoma) was 0.422 µM, the TGI (SK-MEL-28 melanoma) was 1.65 µM and the GI50 (MDA-MB-231 breast) was 0.399 µM. It also gave a TGI (MDA-MB-231 breast) of 3.68 µM, a GI50 (HS 578T breast) of 0.696 µM and a TGI (HS 578T breast) of 47 µM. For the same compound, the GI50 (SF-539 CNS) was 0.28 µM, the TGI (SF-539 CNS) was 1.13 µM and the GI50 (PC-3 prostate) was 1.64 µM. The TGI (PC-3 prostate) was 6.08 µM, the GI50 (MDA-MB-435) was 0.29 µM and the TGI (MDA-MB-435) was 1.07 µM. For the same compound, the GI50 (HCT-116 colon) was 0.326 µM, the TGI (HCT-116 colon) was 1.2 µM and the GI50 (SR leukemia) was 0.401 µM. The TGI (SR leukemia) was greater than 100 µM, the GI50 (SF-268 CNS) was 1.35 µM and the TGI (SF-268 CNS) was 7.21 µM.
